pIC50: −log10 of the molar value.
Tested on: Lox-IMVI melanoma cell line
Experiment: Lox-IMVI anti-proliferative assay (growth inhibition, Cell Titer-Glo)
Assay type: cell-based, human
Conditions: Homo sapiens; Lox-IMVI anti-proliferative assay, IC50 activity level; read-out: Activity
Outline: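 IC50 values reflect the concentration giving 50% of DMSO-control luminescence after 72 h of treatment, fitted with a four-parameter logistic model. Cells were cultured in RPMI + 10% FBS with compound from 0.5 nM to 10 μM.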

pIC50	SMILES
< 6.00	N#Cc1cc(F)c(Nc2nc3cnc(NC4CC5(COC5)C4)nc3n2[C@H]2CC[C@@H](C(N)=O)CC2)c(F)c1 [Example 573, (1s,4s)-4-(2-(2-oxaspiro[3.3]heptan-6-ylamino)-8-(4-cyano-2,6-difluorophenylamino)-9H-purin-9-yl)cyclohexanecarboxamide]
6.30 to 6.60	C[C@]1(C(N)=O)CC[C@@H](n2c(Nc3c(Cl)cc(Cl)cc3Cl)nc3cnc(NC4CCCC4)nc32)CC1 [Example 574, (1s,4s)-4-(2-(cyclopentylamino)-8-(2,4,6-trichlorophenylamino)-9H-purin-9-yl)-1-methylcyclohexanecarboxamide]
> 6.60	C[C@]1(C(N)=O)CC[C@@H](n2c(Nc3c(F)cc(C#N)cc3Cl)nc3cnc(NC4CCCC4)nc32)CC1 [Example 575, (1s,4s)-4-(8-(2-chloro-4-cyano-6-fluorophenylamino)-2-(cyclopentylamino)-9H-purin-9-yl)-1-methylcyclohexanecarboxamide]
6.30 to 6.60	C[C@]1(C(N)=O)CC[C@@H](n2c(Nc3c(F)cc(F)cc3Cl)nc3cnc(N[C@@H]4CCC[C@H](O)C4)nc32)CC1 [Example 576, (1S,4s)-4-(8-(2-chloro-4,6-difluorophenylamino)-2-((1R,3S)-3-hydroxycyclohexylamino)-9H-purin-9-yl)-1-methylcyclohexanecarboxamide]
< 6.00	C[C@]1(C(N)=O)CC[C@@H](n2c(Nc3c(Cl)cc(C(F)(F)F)cc3Cl)nc3cnc(N[C@@H]4CCC[C@H](O)C4)nc32)CC1 [Example 577, (1S,4s)-4-(8-(2,6-dichloro-4-(trifluoromethyl)phenylamino)-2-((1R,3S)-3-hydroxycyclohexylamino)-9H-purin-9-yl)-1-methylcyclohexanecarboxamide]
> 6.60	C[C@]1(C(N)=O)CC[C@@H](n2c(Nc3c(F)cc(F)cc3F)nc3cnc(NC4CC(F)(F)C4)nc32)CC1 [Example 578, (1s,4s)-4-(2-(3,3-difluorocyclobutylamino)-8-(2,4,6-trifluorophenylamino)-9H-purin-9-yl)-1-methylcyclohexanecarboxamide]
> 6.60	C[C@]1(C(N)=O)CC[C@@H](n2c(Nc3c(F)cc(F)cc3Cl)nc3cnc(NC4CC(F)(F)C4)nc32)CC1 [Example 579, (1s,4s)-4-(8-(2-chloro-4,6-difluorophenylamino)-2-(3,3-difluorocyclobutylamino)-9H-purin-9-yl)-1-methylcyclohexanecarboxamide]
6.30 to 6.60	C[C@]1(C(N)=O)CC[C@@H](n2c(Nc3c(Cl)cc(Cl)cc3Cl)nc3cnc(NC4CC(F)(F)C4)nc32)CC1 [Example 580, (1s,4s)-4-(2-(3,3-difluorocyclobutylamino)-8-(2,4,6-trichlorophenylamino)-9H-purin-9-yl)-1-methylcyclohexanecarboxamide]
> 6.60	C[C@]1(C(N)=O)CC[C@@H](n2c(Nc3c(F)cc(Cl)cc3F)nc3cnc(NC4CC(F)(F)C4)nc32)CC1 [Example 581, (1s,4s)-4-(8-(4-chloro-2,6-difluorophenylamino)-2-(3,3-difluorocyclobutylamino)-9H-purin-9-yl)-1-methylcyclohexanecarboxamide]
> 6.60	C[C@]1(C(N)=O)CC[C@@H](n2c(Nc3c(Cl)cc(F)cc3Cl)nc3cnc(NC4CC(F)(F)C4)nc32)CC1 [Example 582, (1s,4s)-4-(8-(2,6-dichloro-4-fluorophenylamino)-2-(3,3-difluorocyclobutylamino)-9H-purin-9-yl)-1-methylcyclohexanecarboxamide]
> 6.60	C[C@]1(C(N)=O)CC[C@@H](n2c(Nc3c(F)cc(C#N)cc3Cl)nc3cnc(NC4CC(F)(F)C4)nc32)CC1 [Example 583, (1s,4s)-4-(8-(2-chloro-4-cyano-6-fluorophenylamino)-2-(3,3-difluorocyclobutylamino)-9H-purin-9-yl)-1-methylcyclohexanecarboxamide]
< 6.00	C[C@]1(C(N)=O)CC[C@@H](n2c(Nc3c(Cl)cc(C(F)(F)F)cc3Cl)nc3cnc(NC4CC(F)(F)C4)nc32)CC1 [Example 584, (1s,4s)-4-(8-(2,6-dichloro-4-(trifluoromethyl)phenylamino)-2-(3,3-difluorocyclobutylamino)-9H-purin-9-yl)-1-methylcyclohexanecarboxamide]
6.00 to 6.30	NC(=O)[C@H]1CC[C@@H](n2c(Nc3c(Cl)cc(F)cc3Cl)nc3cnc(N[C@H]4CCC(F)(F)C4)nc32)CC1 [Example 585, (1R,4s)-4-(8-(2,6-dichloro-4-fluorophenylamino)-2-((S)-3,3-difluorocyclopentylamino)-9H-purin-9-yl)cyclohexanecarboxamide]
> 6.60	NC(=O)[C@H]1CC[C@@H](n2c(Nc3c(Cl)cc(F)cc3Cl)nc3cnc(N[C@@H]4CCC(F)(F)C4)nc32)CC1 [Example 586, (1S,4s)-4-(8-(2,6-dichloro-4-fluorophenylamino)-2-((R)-3,3-difluorocyclopentylamino)-9H-purin-9-yl)cyclohexanecarboxamide]
6.30 to 6.60	NC(=O)[C@H]1CC[C@@H](n2c(Nc3c(F)cc(Cl)cc3F)nc3cnc(N[C@H]4CCC(F)(F)C4)nc32)CC1 [Example 587, (1R,4s)-4-(8-(4-chloro-2,6-difluorophenylarnino)-2-((S)-3,3-difluorocyclopentylamino)-9H-purin-9-yl)cyclohexanecarboxamide]
> 6.60	NC(=O)[C@H]1CC[C@@H](n2c(Nc3c(F)cc(Cl)cc3F)nc3cnc(N[C@@H]4CCC(F)(F)C4)nc32)CC1 [Example 588, (1S,4s)-4-(8-(4-chloro-2,6-difluorophenylamino)-2-((R)-3,3-difluorocyclopentylamino)-9H-purin-9-yl)cyclohexanecarboxamide]
6.30 to 6.60	NC(=O)[C@H]1CC[C@@H](n2c(Nc3c(F)cc(F)cc3Cl)nc3cnc(N[C@H]4CCC(F)(F)C4)nc32)CC1 [Example 589, (1R,4s)-4-(8-(2-chloro-4,6-difluorophenylamino)-2-((S)-3,3-difluorocyclopentylamino)-9H-purin-9-yl)cyclohexanecarboxamide]
> 6.60	NC(=O)[C@H]1CC[C@@H](n2c(Nc3c(F)cc(F)cc3Cl)nc3cnc(N[C@@H]4CCC(F)(F)C4)nc32)CC1 [Example 590, (1S,4s)-4-(8-(2-chloro-4,6-difluorophenylamino)-2-((R)-3,3-difluorocyclopentylamino)-9H-purin-9-yl)cyclohexanecarboxamide]
6.30 to 6.60	NC(=O)[C@H]1CC[C@@H](n2c(Nc3c(F)cc(Cl)cc3Cl)nc3cnc(N[C@H]4CCC(F)(F)C4)nc32)CC1 [Example 591, (1R,4s)-4-(8-(2,4-dichloro-6-fluorophenylamino)-2-((S)-3,3-difluorocyclopentylamino)-9H-purin-9-yl)cyclohexanecarboxamide]
> 6.60	NC(=O)[C@H]1CC[C@@H](n2c(Nc3c(F)cc(Cl)cc3Cl)nc3cnc(N[C@@H]4CCC(F)(F)C4)nc32)CC1 [Example 592, (1S,4s)-4-(8-(2,4-dichloro-6-fluorophenylamino)-2-((R)-3,3-difluorocyclopentylamino)-9H-purin-9-yl)cyclohexanecarboxamide]
6.30 to 6.60	NC(=O)[C@H]1CC[C@@H](n2c(Nc3c(F)cc(F)cc3F)nc3cnc(N[C@H]4CCC(F)(F)C4)nc32)CC1 [Example 593, (1R,4s)-4-(2-((S)-3,3-difluorocyclopentylamino)-8-(2,4,6-trifluorophenylamino)-9H-purin-9-yl)cyclohexanecarboxamide]
